Where no end group is shown, it is not given here.

The subject of one assay is HUVEC. Nature of the assay: HUVEC migration assay (modified Boyden chambers, gelatin-coated filters). The format is cell-based, Human. On the procedure:
Migration Assays. Transwells filters (8-μm pore size; Costar, Cambridge, Mass.) were pre-coated with 0.5% gelatin/PBS for 24 h at 4° C. The transwells were then washed with PBS and assembled in 24-well plates. The upper chamber of each transwell was filled with 100 μl of HUVEC (1×10^6 cells/ml) and cells were allowed to adhere for 1 h. Cells were then treated for 2 h by adding 100 μl of 2-fold concentrated drug solution prepared in serum-free medium into the upper chamber and 600 μl of the drug solution into the lower chamber. Migration was initiated by adding VEGF (10 ng/ml), or S1P (1 μM) to the lower chamber. The plate was placed at 37° C. in 5% CO2/95% air for 4 h. Cells that had migrated to the lower surface of the filters were fixed with 10% formalin phosphate and stained with 0.1% Crystal Violet/20% (v/v) methanol. The migration was quantified using computer-assisted imaging and data are expressed as the average density of migrated cells per four fields (magnification×50).
Cells were plated onto gelatin-coated filters inserted in modified Boyden chemotactic chambers. The effect of PCK3145 on basal migration and on VEGF-induced migration was monitored by the number of cells that had migrated comparatively to untreated control cells. HUVEC were dislodged from the flasks by trypsinization, washed and resuspended in serum-free media. Cells were placed onto gelatin-coated filters inserted in chambers and incubated at 37° C., 5% CO2 for 30 min to allow adequate anchoring to the filters. The monolayers were then exposed to serum-free media containing PCK3145 (300 μg/ml) added within the upper and lower compartment of the chambers. After 2 h, VEGF (50 ng/ml) was added in the lower chamber as a chemoattractant. Cell migration was allowed to proceed for another 3 h. Filters were then fixed, stained, and the migrated cells quantified by microscopy as described in the Methods section. […] The effect of. PCK on S1P-induced HUVEC migration was also measured, but no inhibition was observed (not shown) in this particular assay.

Another assay deals with U-87 cells. Nature of the assay: U-87 cell adhesion to hyaluronic acid. Particulars: U-87, 300 ug/ml, 48 hrs; adhesion 3 hours; three independent experiments. It is filed as cell-based. On the procedure: ECM recognition is a crucial event in the cell adhesion processes involved in tumor progression. This process is mediated and regulated through specialized cell surface receptors or integrins. […] U-87 cells were treated with the PCK3145 derivative (300 ug/ml, 48 hrs), trypsinised, counted, and seeded on wells coated with 10 ug/ml BSA (bovine serum albumin) or HA. Cells were allowed to adhere for 3 hours. Three independent experiments were performed. […] One such potential intracellular protein is the GTPase RhoA, which is likely to mediate mechanisms regulating cytoskeletal morphogenesis.

A further assay has as its system MMP-9. In words: Gelatin zymography of MatLyLu cell culture media. It is filed as cell-based. Conditions: MatLyLu cells, 500 ug/ml and 1 mg/ml, 50 ug/ml collagen type-I, serum free, 72 hrs. On the procedure:
Zymography. Zymography is a technique generally used to analyze the activity of matrix metalloproteinases (MMPs) in biological samples. It involves the electrophoretic separation of proteins under denaturing (Sodium Dodecyl Sulfate (SDS)) but non-reducing conditions through a polyacrylamide gel containing gelatin (for example, 10% gel containing 1 mg/ml gelatin for MMP-9 and MMP-2 assays). The resolved proteins are re-natured by exchanging SDS with a non-ionic detergent such as Triton X-100 and the gel is incubated in an incubation buffer for activation of MMP-2 and MMP-9 (for example at 37° C. for 18 hrs). The gel is stained with Coomassie blue and the MMP-2 and MMP-9 bands may be visualized as clear bands against a blue background (i.e., the MMPs degrade the gelatin and are visualized as clear bands; pro MMP-2 is 68 kDa and pro-MMP-9 is 92 kDa). These bands can be quantified using densitometry. For example, prior to stimulation, quiescent HUVEC were serum-starved for 16 h in the presence or absence of PCK3145 or PD98059 and then stimulated with VEGF. […] Gelatinolytic activity was detected as unstained bands on a blue background. […]
The media were collected after 72 hours of exposure to the PCK3145 derivative and subjected to gelatin zymography. […] The band intensities were determined using the Image Quant software (version 5.0) from molecular Dynamics. […]

The next assay relates to ERK. In words: Intrinsic effect on ERK phosphorylation (Western blot). The format is cell-based. On the procedure:
The induction of the MAPK pathway by the PCK3145 derivative is further confirmed by the rapid and transient induction of ERK phosphorylation between 5-10 minutes (FIG. 8B) and is shown to be dose-dependent (FIG. 8C). Finally, the effects of the PCK3145 derivative were also compared to those of a scrambled peptide.

As for “EWQTDNCETCTCYET (cysteine pairing not given here) [PCK3145 derivative, PCK3145 derivative with acetylaminomethyl groups on the three cysteines]”, the “S1P-induced HUVEC migration” value with HUVEC was “no inhibition”. In addition, the “diminution of cell adhesion on HA” value in the assay on U-87 cells is given as 45-76%. The “MMP-9 secreted in the cell culture media (zymography)” value in the assay with MMP-9 is on record as “dose-dependent reduction”. In the assay on ERK (dose-response), the “induction of ERK phosphorylation, dose dependence” value is given as “dose-dependent”. In addition, in the assay with ERK (time-course), the “time of rapid and transient induction of ERK phosphorylation” value fell in the range of 5 to 10 min.

The values above are taken from patent publication US20080200393A1, “Method and Composition For Treating Angiogenesis and For Preventing Cancer Progression and Metastasis Comprising a Prostate Secretory Protein (Psp94) Family Member” (Ambrillia Biopharma Inc., priority 2004, published 2008).
